Assay results reported in ChEMBL document CHEMBL1128353, “A novel approach to dual-acting thromboxane receptor antagonist/synthase inhibitors based on the link of 1,3-dioxane-thromboxane receptor antagonists and -thromboxane synthase inhibitors” (J Med Chem, 1995).

Assays:
[1] = target: T1, Thromboxane-A synthase (Homo sapiens, UniProt P24557); experiment: In vitro inhibitory activity against human microsomal thromboxane synthase.
T1 sequence (P24557 whole entry): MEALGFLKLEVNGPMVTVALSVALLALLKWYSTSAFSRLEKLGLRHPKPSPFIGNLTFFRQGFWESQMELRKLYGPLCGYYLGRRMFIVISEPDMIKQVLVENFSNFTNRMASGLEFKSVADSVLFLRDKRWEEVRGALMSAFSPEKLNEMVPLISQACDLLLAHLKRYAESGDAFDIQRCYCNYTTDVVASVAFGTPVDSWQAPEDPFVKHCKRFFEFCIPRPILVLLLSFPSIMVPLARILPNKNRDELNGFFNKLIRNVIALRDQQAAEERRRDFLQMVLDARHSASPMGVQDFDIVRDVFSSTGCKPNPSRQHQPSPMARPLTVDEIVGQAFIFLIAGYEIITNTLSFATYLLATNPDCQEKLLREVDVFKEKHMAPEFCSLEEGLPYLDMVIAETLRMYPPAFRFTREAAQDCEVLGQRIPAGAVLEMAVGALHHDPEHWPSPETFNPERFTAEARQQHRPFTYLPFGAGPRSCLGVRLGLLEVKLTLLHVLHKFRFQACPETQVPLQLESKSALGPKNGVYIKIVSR

[2] = species on record: Homo sapiens; experiment: Antagonistic activity against human platelet aggregation induced by U-46,619.; assay type: functional, organism-based; conditions: read-out: pA2 (converted)
[3] = tested on: Rattus norvegicus; experiment: Compound at an oral dose of 10 mg/Kg was tested ex vivo in rat after 5 hr against platelet aggregation induced by U-46,619; assay type: functional, organism-based; conditions: read-out: pA2 (converted)
[4] = tested on: Canis familiaris; experiment: Compound at an oral dose of 1 mg/Kg was tested ex vivo after 5 hr for inhibition of thromboxane synthase in dog; assay type: functional; conditions: Canis lupus familiaris
[5] = tested on: Canis familiaris; experiment: Compound at an oral dose of 1 mg/Kg was tested ex vivo after 1 hr for inhibition of thromboxane synthase in dog; assay type: functional; conditions: Canis lupus familiaris
[6] = tested on: Canis familiaris; experiment: Compound at an oral dose of 1 mg/Kg was tested ex vivo after 3 hr for inhibition of thromboxane synthase in dog; assay type: functional; conditions: Canis lupus familiaris
[7] = tested on: Rattus norvegicus; experiment: Compound at an oral dose of 10 mg/Kg was tested ex vivo after 1 hr for inhibition of thromboxane synthase in rat; assay type: functional
[8] = tested on: Rattus norvegicus; experiment: Compound at an oral dose of 10 mg/Kg was tested ex vivo after 5 hr for inhibition of thromboxane synthase in rat; assay type: functional
[9] = tested on: Rattus norvegicus; experiment: Compound at an oral dose of 10 mg/Kg was tested ex vivo after 3 hr for inhibition of thromboxane synthase in rat; assay type: functional

SMILES | IC50 [1] [nM] | Kb [2] [nM] | other results
O=C(O)CC/C=C\C[C@@H]1CO[C@H](c2cncc(/C(=C\CCCCC(=O)O)c3ccccc3)c2)O[C@@H]1c1ccccc1O | > 10000 | 25.1 | –
O=C(O)CC/C=C\C[C@@H]1CO[C@H](c2ccc3cc(/C(=C\CCCCC(=O)O)c4cccnc4)ccc3c2)O[C@@H]1c1ccccc1O | 50 | 251 | –
O=C(O)CC/C=C\C[C@@H]1CO[C@H](COc2cc(C(=O)O)ccc2OCCn2ccnc2)O[C@@H]1c1ccccc1O | 1700 | 3160 | –
O=C(O)CC/C=C\C[C@@H]1CO[C@H](c2ccc(OCCOc3ccc(/C(=C\CCCCC(=O)O)c4cccnc4)cc3)cc2)O[C@@H]1c1ccccc1O | 50 | 631 | –
O=C(O)CC/C=C\C[C@@H]1CO[C@H](c2ccc(OCCn3ccnc3)c(C(=O)O)c2)O[C@@H]1c1ccccc1O | 3800 | 1260 | –
O=C(O)CC/C=C\C[C@@H]1CO[C@H](c2ccccc2Cl)O[C@@H]1c1ccccc1O | > 100000 | 3.16 | Kb [3]: 100 nM
O=C(O)CC/C=C\C[C@@H]1CO[C@H](c2cccc(OCCCCCCOc3ccc(/C(=C\CCCCC(=O)O)c4cccnc4)cc3)c2)O[C@@H]1c1ccccc1O | 70 | 100 | –
O=C(O)CC/C=C\C[C@@H]1CO[C@H](c2cncc(/C(=C/CCCCC(=O)O)c3ccccc3)c2)O[C@@H]1c1ccccc1O | > 10000 | 39.8 | –
O=C(O)CC/C=C\C[C@@H]1CO[C@H](c2ccc(CCOc3ccc(/C(=C\CCCCC(=O)O)c4cccnc4)cc3)cc2)O[C@@H]1c1ccccc1O | 50 | 631 | –
O=C(O)CC/C=C\C[C@@H]1CO[C@H](c2ccc(OCCOc3cc(C(=O)O)ccc3OCCn3ccnc3)cc2)O[C@@H]1c1ccccc1O | 60 | 501 | –
O=C(O)CC/C=C\C[C@@H]1CO[C@H](CCCCCOc2cc(C(=O)O)ccc2OCCn2ccnc2)O[C@@H]1c1ccccc1O | 60 | 1260 | –
O=C(O)CC/C=C\C[C@@H]1CO[C@H](CCCCCCCCCCOc2ccc(/C(=C\CCCCC(=O)O)c3cccnc3)cc2)O[C@@H]1c1ccccc1O | 40 | 2510 | –
O=C(O)CCCC/C=C(\c1ccccc1)c1cccnc1 [(E)-ISBOGREL] | – | > 10000 | inhibition in vivo at 1 mg/kg [4]: 82%; inhibition in vivo at 1 mg/kg [5]: 93%; inhibition in vivo at 1 mg/kg [6]: 83%; inhibition in vivo at 10 mg/kg [7]: 97%; inhibition in vivo at 10 mg/kg [8]: 87%; inhibition in vivo at 10 mg/kg [9]: 97%
O=C(O)c1ccc(OCCn2ccnc2)cc1 [DAZOXIBEN] | – | > 10000 | inhibition in vivo at 1 mg/kg [4]: 77%; inhibition in vivo at 1 mg/kg [5]: 73%; inhibition in vivo at 1 mg/kg [6]: 91%; inhibition in vivo at 10 mg/kg [7]: 86%; inhibition in vivo at 10 mg/kg [9]: 87%

More lines, in order of falling IC50 [1], values ahead:

IC50 [1] [nM] | SMILES | Kb [2] [nM] | other results
40 | O=C(O)CC/C=C\C[C@@H]1CO[C@H](c2ccc(OCCCCCCOc3cc(C(=O)O)ccc3OCCn3ccnc3)cc2)O[C@@H]1c1ccccc1O | 158 | –
40 | O=C(O)CC/C=C\C[C@@H]1CO[C@H](C(CCC/C=C(/c2ccccc2)c2cccnc2)C(=O)O)O[C@@H]1c1ccccc1O (stereo partly drawn) | > 10000 | –
40 | O=C(O)CC/C=C\C[C@@H]1CO[C@H](c2cccc(OCCOc3ccc(/C(=C\CCCCC(=O)O)c4cccnc4)cc3)c2)O[C@@H]1c1ccccc1O | 794 | –
40 | O=C(O)CC/C=C\C[C@@H]1CO[C@H](c2ccc(/C(=C\CCCCC(=O)O)c3cccnc3)cc2)O[C@@H]1c1ccccc1O | 100 | –
40 | O=C(O)CC/C=C\C[C@@H]1CO[C@H](c2cccc(COc3ccc(/C(=C\CCCCC(=O)O)c4cccnc4)cc3)c2)O[C@@H]1c1ccccc1O | 200 | –
30 | CC(C)(CCCCOc1ccc(/C(=C\CCCCC(=O)O)c2cccnc2)cc1)[C@H]1OC[C@@H](C/C=C\CCC(=O)O)[C@@H](c2ccccc2O)O1 | 251 | –
30 | O=C(O)CC/C=C\C[C@@H]1CO[C@H](c2cccc(OCCOc3cc(C(=O)O)ccc3OCCn3ccnc3)c2)O[C@@H]1c1ccccc1O | 158 | –
30 | O=C(O)CC/C=C\C[C@@H]1CO[C@H](c2ccccc2OCCOc2cc(C(=O)O)ccc2OCCn2ccnc2)O[C@@H]1c1ccccc1O | 1260 | –
30 | CC(C)(c1ccc(/C(=C\CCCCC(=O)O)c2cccnc2)cc1)[C@H]1OC[C@@H](C/C=C\CCC(=O)O)[C@@H](c2ccccc2O)O1 | 251 | –
30 | O=C(O)CC/C=C\C[C@@H]1CO[C@H](CCOc2ccc(/C(=C\CCCCC(=O)O)c3cccnc3)cc2)O[C@@H]1c1ccccc1O | 200 | –
30 | O=C(O)CC/C=C\C[C@@H]1CO[C@H](c2ccccc2OCCOc2ccc(/C(=C\CCCCC(=O)O)c3cccnc3)cc2)O[C@@H]1c1ccccc1O | 158 | –
20 | O=C(O)CC/C=C\C[C@@H]1CO[C@H](c2ccc(COc3ccc(/C(=C\CCCCC(=O)O)c4cccnc4)cc3)cc2)O[C@@H]1c1ccccc1O | 200 | –
10 | CC(C)(CCCCCc1ccc(/C(=C\CCCCC(=O)O)c2cccnc2)cc1)[C@H]1OC[C@@H](C/C=C\CCC(=O)O)[C@@H](c2ccccc2O)O1 | 501 | –
10 | O=C(O)CC/C=C\C[C@@H]1CO[C@H](CCCCCOc2ccc(/C(=C\CCCCC(=O)O)c3cccnc3)cc2)O[C@@H]1c1ccccc1O | 200 | –
10 | O=C(O)CC/C=C\C[C@@H]1CO[C@H](c2ccc(COc3cccc(/C(=C\CCCCC(=O)O)c4cccnc4)c3)cc2)O[C@@H]1c1ccccc1O | 100 | –
